{"source": "patent US20080014261A1", "about": "“Non-narcotic biphasic release compositions and methods for treatment of coughing, sneezing, rhinorrhea, and/or nasal obstruction” (priority 2006, published 2008)", "origin": "cited, not measured here", "details": "in vivo"}
{"compound": "COc1ccccc1OCC(O)CO", "note": "(stereo not shown) [Guaifenesin, 3-(2-methoxyphenoxy)-1,2 propanediol]", "values": [{"measurement": "plasma half life", "value": "one"}]}
